The source made the active and inactive calls. No cut-off for these calls is given here.

The results in this text go back to ChEMBL document CHEMBL3044713, “Synthesis, characterization, and pharmacological evaluation of new GABA analogs as potent anticonvulsant agents” (Med Chem Res, 2012).

The test system of series [1] is Mus musculus. The series is described as follows: Anticonvulsant activity in Mus musculus albino (mouse) assessed as protection against subcutaneous strychnine-induced seizures at 300 mg/kg, ip after 4 hr. It is filed as functional, organism-based. Set-up: dose 300 mg/kg.
The subject of series [2] is Mus musculus. The series is described as follows: Anticonvulsant activity in Mus musculus albino (mouse) assessed as protection against subcutaneous strychnine-induced seizures at 300 mg/kg, ip after 0.5 hr. It is filed as functional, organism-based. Set-up: dose 300 mg/kg.
The subject of series [3] is Mus musculus. The series is described as follows: Neurotoxicity in Mus musculus albino (mouse) assessed as motor impairment at 300 mg/kg, ip after 0.5 hr by rotorod test. It is filed as toxicity, organism-based. The arrangement: dose 300 mg/kg, route intraperitoneal. The note with it: in vivo. On the technique in general: In the rotarod test animals must keep their balance on a rotating rod.

Series [4] relates to Mus musculus. The series is described as follows: Anticonvulsant activity in Mus musculus albino (mouse) assessed as protection against ip picrotoxin-induced seizures at 300 mg/kg, ip after 0.5 hr. The class given is functional, organism-based. Set-up: dose 300 mg/kg.
Series [5] relates to Mus musculus. The series is described as follows: Anticonvulsant activity in ip dosed Mus musculus albino (mouse) assessed as protection against maximal electroshock-induced seizures after 0.5 hr. It is filed as functional. The following applies: read-out: MED. For orientation: Protection in the maximal electroshock model is a classic sign of anticonvulsant action.
Series [6] relates to Mus musculus. The experiment in a line: Anticonvulsant activity in Mus musculus albino (mouse) assessed as protection against ip picrotoxin-induced seizures at 300 mg/kg, ip after 4 hr. The class given is functional, organism-based. Set-up: dose 300 mg/kg.
Series [7] relates to Mus musculus. The series is described as follows: Anticonvulsant activity in Mus musculus albino (mouse) assessed as protection against subcutaneous pentylenetetrazole-induced seizures at 300 mg/kg, ip after 4 hr. It is filed as functional, organism-based. Set-up: dose 300 mg/kg.
Series [8] has as its system Mus musculus. The series is described as follows: Anticonvulsant activity in Mus musculus albino (mouse) assessed as protection against subcutaneous pentylenetetrazole-induced seizures at 300 mg/kg, ip after 0.5 hr. It is filed as functional, organism-based. Set-up: dose 300 mg/kg.
Series [9] relates to Mus musculus. The series is described as follows: Neurotoxicity in Mus musculus albino (mouse) assessed as motor impairment at 300 mg/kg, ip after 4 hr by rotorod test. It is filed as toxicity, organism-based. The note with it: in vivo. Set-up: dose 300 mg/kg, route intraperitoneal.
Series [10] is described as follows: Neurotoxicity in ip dosed Mus musculus albino (mouse) assessed as motor impairment after 4 hr by rotorod test. The class given is toxicity, organism-based. The note with it: in vivo.
Series [11] is described as follows: Neurotoxicity in ip dosed Mus musculus albino (mouse) assessed as motor impairment after 0.5 hr by rotorod test. The class given is toxicity, organism-based. The following applies: in vivo.
The test system of series [12] is Mus musculus. The experiment in a line: Anticonvulsant activity in Mus musculus albino (mouse) assessed as protection against maximal electroshock-induced seizures at 300 mg/kg, ip after 0.5 hr. The class given is functional, organism-based. The arrangement: dose 300 mg/kg.
Series [13] relates to Mus musculus. The series is described as follows: Anticonvulsant activity in ip dosed Mus musculus albino (mouse) assessed as protection against subcutaneous strychnine-induced seizures after 0.5 hr. It is filed as functional. The following applies: read-out: MED.
Series [14] concerns Mus musculus. The experiment in a line: Anticonvulsant activity in ip dosed Mus musculus albino (mouse) assessed as protection against ip picrotoxin-induced seizures after 0.5 hr. The following applies: read-out: MED. It is filed as functional.
For series [15], the system named is Mus musculus. The experiment in a line: Anticonvulsant activity in ip dosed Mus musculus albino (mouse) assessed as protection against subcutaneous strychnine-induced seizures after 4 hr. It is filed as functional. The following applies: read-out: MED.
For series [16], the system named is Mus musculus. The series is described as follows: Anticonvulsant activity in ip dosed Mus musculus albino (mouse) assessed as protection against subcutaneous pentylenetetrazole-induced seizures after 4 hr. The class given is functional. The following applies: read-out: MED.
Series [17] deals with Mus musculus. The experiment in a line: Anticonvulsant activity in ip dosed Mus musculus albino (mouse) assessed as protection against ip picrotoxin-induced seizures after 4 hr. The class given is functional. The following applies: read-out: MED.
In series [18] the test system is Mus musculus. The experiment in a line: Anticonvulsant activity in ip dosed Mus musculus albino (mouse) assessed as protection against subcutaneous pentylenetetrazole-induced seizures after 0.5 hr. It is filed as functional. The note with it: read-out: MED.

As to `CCC1(C)CC(=O)NC1=O` (centres undefined) [ETHOSUXIMIDE], the result in the series on Mus musculus [1], in the series with Mus musculus [2], in the series with Mus musculus [4], in the series on Mus musculus [6], in the series with Mus musculus [7] and in the series with Mus musculus [8] was inactive. Besides, the Activity entry in the series on Mus musculus [3] and in the series on Mus musculus [9] was “Non-toxic” throughout. Also, in the series on Mus musculus [5], the minimal effective dose amounted to 300 mg/kg.
As for `O=C(CCCN1C(=O)c2ccccc2C1=O)Nc1ccc([N+](=O)[O-])cc1`, the outcome in the series with Mus musculus [1], in the series with Mus musculus [2], in the series with Mus musculus [4], in the series with Mus musculus [6], in the series on Mus musculus [7] and with Mus musculus [12] was inactive. Moreover, in the series with Mus musculus [8], the outcome was inactive. Further, the MTD at 4 h in [10] is 100 mg/kg. Further, the MTD at 0.5 h in series [11] was found to be 100 mg/kg.
Regarding `O=C(CCCN1C(=O)c2ccccc2C1=O)Nc1ccc(Cl)cc1I`, the result with Mus musculus [1], in the series on Mus musculus [6], with Mus musculus [7], with Mus musculus [12] and in the series with Mus musculus [8] was inactive. Also, the minimal effective dose in the series on Mus musculus [13] was found to be 100 mg/kg; in the series with Mus musculus [14], 300 mg/kg. Moreover, the MTD at 0.5 h in [11] was 300 mg/kg. The Activity result in the series with Mus musculus [9] was “Non-toxic”.
Take `O=C(CCCN1C(=O)c2ccccc2C1=O)Nc1ccc(I)cc1`: the outcome with Mus musculus [1], in the series with Mus musculus [4], with Mus musculus [6], in the series with Mus musculus [7], in the series on Mus musculus [12] and with Mus musculus [8] was inactive. In the series on Mus musculus [13], the minimal effective dose was determined as 100 mg/kg. For the same compound, the Activity entry in the series with Mus musculus [3] and in the series on Mus musculus [9] was “Non-toxic” each time.
In the case of `O=C(CCCN1C(=O)c2ccccc2C1=O)Nc1ccc(F)cc1F`, the outcome in the series with Mus musculus [1], in the series with Mus musculus [6], in the series with Mus musculus [7], in the series on Mus musculus [12] and in the series with Mus musculus [8] was inactive. In addition, the minimal effective dose in the series on Mus musculus [13] worked out at 100 mg/kg; with Mus musculus [14], 300 mg/kg. Besides, the Activity entry with Mus musculus [3] and in the series on Mus musculus [9] was “Non-toxic” throughout.
Regarding `O=C(CCCN1C(=O)c2ccccc2C1=O)Nc1ccc(Cl)cc1`, the minimal effective dose in the series with Mus musculus [13] amounted to 100 mg/kg; in the series on Mus musculus [14], 300 mg/kg; in the series on Mus musculus [15] it was 300 mg/kg. The Activity result in the series with Mus musculus [3] and with Mus musculus [9] was “Non-toxic” throughout. Further, the result in the series on Mus musculus [6], with Mus musculus [7], in the series on Mus musculus [12] and with Mus musculus [8] was inactive.
Turning to `COc1ccc(NC(=O)CCCN2C(=O)c3ccccc3C2=O)cc1`, the outcome in the series on Mus musculus [1], with Mus musculus [2], in the series on Mus musculus [6], in the series on Mus musculus [7], in the series on Mus musculus [12] and with Mus musculus [8] was inactive. Besides, the Activity result with Mus musculus [3] and with Mus musculus [9] was “Non-toxic” in each case. Moreover, in the series with Mus musculus [14], the minimal effective dose came to 300 mg/kg.
Turning to `O=C(CCCN1C(=O)c2ccccc2C1=O)Nc1ccccc1`, the result in the series with Mus musculus [1], in the series with Mus musculus [2], with Mus musculus [4], in the series on Mus musculus [6], in the series with Mus musculus [7] and with Mus musculus [8] was inactive. Besides, the Activity entry in the series on Mus musculus [3] was “Non-toxic”. Moreover, the MTD at 4 h in [10] turned out to be 100 mg/kg. Moreover, the minimal effective dose with Mus musculus [5] worked out at 300 mg/kg.
As for `O=C(CCCN1C(=O)c2ccccc2C1=O)Nc1ccc(F)cc1`, the result in the series on Mus musculus [1], with Mus musculus [6], in the series with Mus musculus [7], in the series on Mus musculus [12] and in the series on Mus musculus [8] was inactive. For the same compound, the minimal effective dose in the series with Mus musculus [13] and in the series with Mus musculus [14] was 300 mg/kg throughout. The Activity result with Mus musculus [3] and in the series on Mus musculus [9] was “Non-toxic” in each case.
As for `O=C(CCCN1C(=O)c2ccccc2C1=O)Nc1ccc(Cl)cc1Cl`, the result in the series with Mus musculus [1], in the series on Mus musculus [2], in the series on Mus musculus [6], in the series on Mus musculus [7], in the series on Mus musculus [12] and in the series on Mus musculus [8] was inactive. For the same compound, the minimal effective dose in the series with Mus musculus [13] and with Mus musculus [14] was 300 mg/kg in each case. The Activity result in the series with Mus musculus [3] and in the series with Mus musculus [9] was “Non-toxic” throughout.
For the compound `Cc1ccc(NC(=O)CCCN2C(=O)c3ccccc3C2=O)cc1`, the outcome with Mus musculus [1], in the series on Mus musculus [2], in the series with Mus musculus [6], in the series on Mus musculus [12] and in the series on Mus musculus [8] was inactive. Moreover, the Activity entry in the series on Mus musculus [3] and in the series on Mus musculus [9] was “Non-toxic” in each case. Also, the minimal effective dose with Mus musculus [16] worked out at 100 mg/kg; in the series with Mus musculus [14], 300 mg/kg.
Turning to `CCc1ccc(NC(=O)CCCN2C(=O)c3ccccc3C2=O)cc1`, the result in the series on Mus musculus [2] and with Mus musculus [12] was inactive. The Activity result with Mus musculus [3] and in the series on Mus musculus [9] was “Non-toxic” in each case. Further, the minimal effective dose is 300 mg/kg with Mus musculus [16]; 100 mg/kg in the series on Mus musculus [17]; 100 mg/kg in the series on Mus musculus [14]; 100 mg/kg in the series on Mus musculus [15]; 100 mg/kg with Mus musculus [18].
For `Cc1cc(Cl)ccc1NC(=O)CCCN1C(=O)c2ccccc2C1=O`, the outcome in the series with Mus musculus [1] and with Mus musculus [12] was inactive. Besides, the minimal effective dose in the series on Mus musculus [13] came to 300 mg/kg; with Mus musculus [16] it was 300 mg/kg; with Mus musculus [17] it was 300 mg/kg; with Mus musculus [14], 100 mg/kg; in the series with Mus musculus [18], 100 mg/kg. In addition, the Activity result in the series with Mus musculus [3] and with Mus musculus [9] was “Non-toxic” in each case.
As for `O=C1NC(=O)C(c2ccccc2)(c2ccccc2)N1`, the outcome in the series with Mus musculus [1], with Mus musculus [2], with Mus musculus [4], with Mus musculus [6], in the series with Mus musculus [7] and in the series with Mus musculus [12] was inactive. Besides, in the series with Mus musculus [8], the outcome was inactive.
For the compound `O=C(CCCN1C(=O)c2ccccc2C1=O)Nc1ccc(Br)cc1`, the result in the series on Mus musculus [1], in the series on Mus musculus [2], with Mus musculus [7] and with Mus musculus [12] was inactive. The MTD at 0.5 h in series [11] was 100 mg/kg. Further, the minimal effective dose with Mus musculus [17] was 300 mg/kg; in the series on Mus musculus [14], 100 mg/kg; in the series with Mus musculus [18], 30 mg/kg. Further, in the series on Mus musculus [9], the Activity entry is “Non-toxic”.
